The results in this text go back to PMC5348404, “Systematic approach identifies RHOA as a potential biomarker therapeutic target for Asian gastric cancer” (Oncotarget, 2016).

This assay has as its target T1, RHOA (Homo sapiens, UniProt P61586).
T1 construct: commercial RHOA protein (Sigma-Aldrich SRP5127), immobilized on CMDH gold chip
The assay can be described thus: surface plasmon resonance, immobilized RHOA (Reichert SR7500DC). Type of assay: binding.

T1 sequence (P61586 whole entry): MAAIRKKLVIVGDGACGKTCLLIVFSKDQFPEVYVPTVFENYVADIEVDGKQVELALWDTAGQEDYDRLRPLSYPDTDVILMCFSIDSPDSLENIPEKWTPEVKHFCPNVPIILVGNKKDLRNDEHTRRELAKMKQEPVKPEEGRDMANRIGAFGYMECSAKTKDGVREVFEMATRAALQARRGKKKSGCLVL

The Kd is the free concentration of one partner at which half of the binding sites on the other are occupied at equilibrium, for simple one-to-one binding. Read a high Kd as weaker binding. Take `O=C(N/N=C/c1ccc2c(c1)OCO2)c1ccncc1` [JK-123]: binding was put at a Kd of 16.3 ± 0.4 µM. Then `CC(=O)N/N=C/c1ccc2c(c1)OCO2` [JK-125], with 8.7 ± 6 µM; and `O=S(=O)(N/N=C/c1ccc2c(c1)OCO2)c1ccccc1` [JK-121], with 67 ± 3 µM; and `O=C(N/N=C/c1ccc2c(c1)OCO2)c1ccc(O)cc1` [JK-124], with 44 ± 2 µM. With `O=C(N/N=C/c1ccc2c(c1)OCO2)c1ccccc1` [JK-122] the figure was 6.9 ± 0.4 µM.
